Laboratory results published in PubChem BioAssay AID2060486 (Molecular Pharmacology Branch, DTP, NCI, 2025).

System: IGROV1 complex spheroids (HUVEC, MSC), viability % test/control
Experiment: Anticancer human tumor IGROV1 cell line growth inhibition [GQUAD];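 note: spheroids exposed to compounds for 7 days before readout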
Settings: for IC50: curve of first compound; for viability, T/C: stronger effect = lower value
Description: DNA G-quadruplex Stabilizer Agents in Combinations in Complex Spheroids
A high-throughput screen of multi-cell type tumor spheroids was designed to identify active combinations of DNA G-quadruplex stabilizer agents and targeted small molecules. Complex spheroids include a stromal component modeled by human endothelial cells (HUVEC) and fibroblasts modeled by human mesenchymal stem cells (MSCs). The concentration ranges selected for each drug and investigational agent were based upon clinically achievable concentrations if the clinical Cmax of the agent was known.
Compounds. The drugs and investigational agents: pidnarulex (CX-5461; NSC782164), APTO-253 (NSC789042), BRACO-19 (NSC847499), peposertib (NSC802822), ceralasertib (NSC780249), elimusertib (NSC800525), camonsertib (NSC841442), AZD-1390 (NSC803789), olaparib (NSC753686), talazoparib (NSC767125), ART-558 (NSC835418), sotorasib (NSC818433), MRTX-1133 (NSC836407), SN-38 (NSC673596), topotecan (NSC609699), etoposide (NSC141540), doxorubicin (NSC123127), gemcitabine (NSC613327), 5-fluorouracil (NSC19893), paclitaxel (NSC125973), vemurafenib (NSC761431), panobinostat (NSC761190), R-306465 (JNJ-16241199; NSC773264), adavosertib (NSC754352), TP-3654 (NSC805149), carboplatin (NSC241240), KSQ-4279 (NSC840948), and staurosporine (NSC755774) were obtained from the National Cancer Institute (NCI) Developmental Therapeutics Program Chemical Repository (34). The FDA-approved anticancer drug set is available from the NCI Developmental Therapeutics Program. […] The stock solutions were prepared in dimethyl sulfoxide (DMSO, Sigma-Aldrich, St. Louis, MO, cat. D2650) at 800-fold the tested concentration and stored at -70 degrees C prior to their use. All drugs and investigational agents were tested over a range starting from a high concentration at or near the clinical Cmax and decreasing in half-log increments. If the clinical Cmax for an agent had not been determined, the highest concentration tested was 10 microM.
2.3 Cell Culture. All cells were maintained in an incubator at 37 degrees C and 5% CO2 with 95% humidity. The PDC lines were cultured according to standard operating procedures established by the NCI PDMR. All PDCs were thawed and cultured in Matrigel-coated flasks prepared with a working solution of 1X Ham's F-12 nutrient mix, without supplementation (Invitrogen, cat. 11765054), 100 U/mL penicillin-streptomycin (Invitrogen, cat. 15140122), and 2.5% Matrigel (Corning Inc., cat. 354248) for the first three passages. The 857933-349-R-J2-PDC line was cultured in 6C/Colon 1B media, which includes advanced DMEM/F-12 (Thermo Fisher Scientific, cat. 12634028), 10 mM HEPES (Thermo Fisher Scientific, cat. 15630080), 1X GlutaMAX supplement (Thermo Fisher Scientific, cat. 35050061), 0.1 mg/mL primocin (InvivoGen, cat. ant-pm-2), 10% defined fetal bovine serum, heat inactivated (HyClone Laboratories Inc., cat. SH30070.03HI), 50% L-WRN conditioned media (ATCC, cat. CRL-3276), 1.25 mM N-Acetyl-L-cysteine (Sigma-Aldrich, cat. A9165), 10 mM nicotinamide (Sigma-Aldrich, cat. N0636), 1X B-27 supplement (Thermo Fisher Scientific, cat. 17504044), 1X N-2 supplement (Thermo Fisher Scientific, cat. 17502048), 10 microM Y-27632 dihydrochloride (Tocris Bioscience, cat. 1254), and 50 ng/mL human EGF recombinant protein (Thermo Fisher Scientific, cat. PHG0311). The 485176-168-R4-J1-PDC line was cultured in Panc media, which includes all 6C/Colon 1B media components plus 100 ng/mL human FGF-10 (Thermo Fisher Scientific, cat. 100-26), 500 nM SB-431542 (Selleckchem, cat. S1067), and gastrin (Tocris, cat. 3006).
[…]

[1] = second compound 0.0316 µM, first compound 0.0316 µM
[2] = second compound 0.0316 µM, first compound 0.316 µM
[3] = second compound 0.1 µM, first compound 0.0316 µM
[4] = second compound 0.1 µM, first compound 0.316 µM
[5] = second compound 0.316 µM, first compound 0.0316 µM
[6] = second compound 0.316 µM, first compound 0.316 µM
[7] = second compound 1 µM, first compound 0.0316 µM
[8] = second compound 1 µM, first compound 0.316 µM
[9] = second compound 3.16 µM, first compound 0.0316 µM
[10] = second compound 3.16 µM, first compound 0.316 µM
[11] = second compound 10 µM, first compound 0.0316 µM
[12] = second compound 10 µM, first compound 0.316 µM

SMILES: COc1ncnc(C2CC2)c1-c1ncc2cnn(Cc3ccc(-c4nc(C(F)(F)F)cn4C(C)C)cc3)c2n1 + Cc1cnc(CNC(=O)c2c(=O)c3ccc(N4CCCN(C)CC4)nc3n3c2sc2ccccc23)cn1
- IC50 (second compound 0.0316 µM): 2.11 µM
- IC50 (second compound 0.1 µM): < 0.0316 µM
- IC50 (second compound 0.316 µM): < 0.0316 µM
- IC50 (second compound 1 µM): < 0.0316 µM
- IC50 (second compound 3.16 µM): < 0.0316 µM
- IC50 (second compound 10 µM): < 0.0316 µM
- viability, T/C [1]: 53.6%
- viability, T/C (second compound 0.0316 µM, first compound 0.1 µM): 55.4%
- viability, T/C [2]: 53%
- viability, T/C (second compound 0.0316 µM, first compound 1 µM): 57.7%
- viability, T/C (second compound 0.0316 µM, first compound 3.16 µM): 42.7%
- viability, T/C (second compound 0.0316 µM, first compound 10 µM): 46.5%
- viability, T/C [3]: 37.1%
- viability, T/C (second compound 0.1 µM, first compound 0.1 µM): 39.4%
- viability, T/C [4]: 33%
- viability, T/C (second compound 0.1 µM, first compound 1 µM): 28.5%
- viability, T/C (second compound 0.1 µM, first compound 3.16 µM): 35.5%
- viability, T/C (second compound 0.1 µM, first compound 10 µM): 34.1%
- viability, T/C [5]: 20.6%
- viability, T/C (second compound 0.316 µM, first compound 0.1 µM): 25.6%
- viability, T/C [6]: 26.9%
- viability, T/C (second compound 0.316 µM, first compound 1 µM): 21.4%
- viability, T/C (second compound 0.316 µM, first compound 3.16 µM): 21.7%
- viability, T/C (second compound 0.316 µM, first compound 10 µM): 20.8%
- viability, T/C [7]: 15.2%
- viability, T/C (second compound 1 µM, first compound 0.1 µM): 13.8%
- viability, T/C [8]: 11.1%
- viability, T/C (second compound 1 µM, first compound 1 µM): 14.3%
- viability, T/C (second compound 1 µM, first compound 3.16 µM): 15.8%
- viability, T/C (second compound 1 µM, first compound 10 µM): 12.4%
- viability, T/C [9]: 10.6%
- viability, T/C (second compound 3.16 µM, first compound 0.1 µM): 8.57%
- viability, T/C [10]: 9.08%
- viability, T/C (second compound 3.16 µM, first compound 1 µM): 9.63%
- viability, T/C (second compound 3.16 µM, first compound 3.16 µM): 9.64%
- viability, T/C (second compound 3.16 µM, first compound 10 µM): 8.03%
- viability, T/C [11]: 9.86%
- viability, T/C (second compound 10 µM, first compound 0.1 µM): 9.33%
- viability, T/C [12]: 8.36%
- viability, T/C (second compound 10 µM, first compound 1 µM): 8.88%
- viability, T/C (second compound 10 µM, first compound 3.16 µM): 10.2%
- viability, T/C (second compound 10 µM, first compound 10 µM): 7.78%

SMILES: CC[C@@]1(O)C(=O)OCc2c1cc1n(c2=O)Cc2cc3c(CN(C)C)c(O)ccc3nc2-1 + CN(C)c1ccc(Nc2c3ccc(NC(=O)CCN4CCCC4)cc3nc3cc(NC(=O)CCN4CCCC4)ccc23)cc1
- IC50 (second compound 0.0316 µM): 0.0221 µM
- IC50 (second compound 0.1 µM): 0.0245 µM
- IC50 (second compound 0.316 µM): 0.025 µM
- IC50 (second compound 1 µM): 0.0228 µM
- IC50 (second compound 3.16 µM): 0.0293 µM
- IC50 (second compound 10 µM): < 0.000999 µM
- viability, T/C (second compound 0.0316 µM, first compound 0.000999 µM): 98.2%
- viability, T/C (second compound 0.0316 µM, first compound 0.00316 µM): 95.7%
- viability, T/C (second compound 0.0316 µM, first compound 0.00999 µM): 93.1%
- viability, T/C [1]: 30.5%
- viability, T/C (second compound 0.0316 µM, first compound 0.0999 µM): 12.2%
- viability, T/C [2]: 10.9%
- viability, T/C (second compound 0.1 µM, first compound 0.000999 µM): 98.1%
- viability, T/C (second compound 0.1 µM, first compound 0.00316 µM): 87.8%
- viability, T/C (second compound 0.1 µM, first compound 0.00999 µM): 86%
- viability, T/C [3]: 39.7%
- viability, T/C (second compound 0.1 µM, first compound 0.0999 µM): 13.5%
- viability, T/C [4]: 9.48%
- viability, T/C (second compound 0.316 µM, first compound 0.000999 µM): 94.5%
- viability, T/C (second compound 0.316 µM, first compound 0.00316 µM): 87.5%
- viability, T/C (second compound 0.316 µM, first compound 0.00999 µM): 91.8%
- viability, T/C [5]: 39.4%
- viability, T/C (second compound 0.316 µM, first compound 0.0999 µM): 12.4%
- viability, T/C [6]: 12.2%
- viability, T/C (second compound 1 µM, first compound 0.000999 µM): 87.5%
- viability, T/C (second compound 1 µM, first compound 0.00316 µM): 81.7%
- viability, T/C (second compound 1 µM, first compound 0.00999 µM): 75.9%
- viability, T/C [7]: 40.5%
- viability, T/C (second compound 1 µM, first compound 0.0999 µM): 9.84%
- viability, T/C [8]: 12.7%
- viability, T/C (second compound 3.16 µM, first compound 0.000999 µM): 70.5%
- viability, T/C (second compound 3.16 µM, first compound 0.00316 µM): 89.4%
- viability, T/C (second compound 3.16 µM, first compound 0.00999 µM): 77.4%
- viability, T/C [9]: 48.1%
- viability, T/C (second compound 3.16 µM, first compound 0.0999 µM): 13.5%
- viability, T/C [10]: 10.8%
- viability, T/C (second compound 10 µM, first compound 0.000999 µM): 42.9%
- viability, T/C (second compound 10 µM, first compound 0.00316 µM): 35%
- viability, T/C (second compound 10 µM, first compound 0.00999 µM): 37%
- viability, T/C [11]: 19.1%
- viability, T/C (second compound 10 µM, first compound 0.0999 µM): 9.45%
- viability, T/C [12]: 6.49%
